In PMC8745369, “Discovery of 2,4-thiazolidinedione-tethered coumarins as novel selective inhibitors for carbonic anhydrase IX and XII isoforms” (Journal of Enzyme Inhibition and Medicinal Chemistry, 2022):
Read-outs that look alike come from different tables or passages of the source.

Experiments:
hCA XII = hCA XII (Homo sapiens, UniProt O43570); assay: Stopped flow CO2 hydrase assay, hCA XII inhibition; assay type: biochemical; settings: for Ki: stopped flow technique, incubation time of 6 h, mean from 3 different assays, read-out: KI CA XII
hCA IX = hCA IX (Homo sapiens, UniProt Q16790); assay: Stopped flow CO2 hydrase assay, hCA IX inhibition; assay type: biochemical; settings: stopped flow technique; incubation time of 6 h; mean from 3 different assays; read-out: KI CA IX
hCA II = hCA II (Homo sapiens, UniProt P00918); assay: Stopped flow CO2 hydrase assay, hCA II inhibition; assay type: biochemical; settings: stopped flow technique; incubation time of 6 h; mean from 3 different assays; read-out: KI CA II
[1] = system: MCF-7 breast cancer cell line; assay: MTT antiproliferative assay under hypoxic conditions; assay type: cell-based; settings: Homo sapiens, MCF7, hypoxic conditions (CoCl2), 48 h exposure, mean ± SD of three experiments
Procedure: 2. Anti-proliferative action toward human breast cell line
The examined human breast cancer cell line (MCF-7) has been obtained from American Type Culture Collection (ATCC). Cells line was maintained as monolayers in Dulbecco’s Modified Eagle’s Medium (DMEM) supplemented with 10% FBS, 2 mM L-glutamine, 100 U/ml penicillin and 100µg/ml streptomycin sulfate. Cobalt (II) chloride (CoCl2) was utilized as an inducer of HIF-1α to furnish a chemically-induced hypoxia. Cells were sub-cultured with trypsine /EDTA solution, counted with haemocytometer and plated onto 96-well plates (5000 cells/well) and left overnight to form a semi-confluent monolayer. Cell monolayers were treated in quadrates with […]
for an exposure time of 48 h. At the end of exposure, MTT solution in PBS (5 mg/ml) was then added to all well including no cell blank and left to incubate for 90 min. The formation of formazan crystals were visually confirmed using phase contract microscopy. DMSO (100 µl/well) was added to dissolve the formazan crystals with shaking for 10 min after which the absorbance was read at […]

hCA I = hCA I (Homo sapiens, UniProt P00915); assay: Stopped flow CO2 hydrase assay, hCA I inhibition; assay type: biochemical
[2] = system: MCF-7 breast cancer cells; assay: Annexin V-FITC/propidium iodide apoptosis assay; assay type: cell-based, human; settings: treatment at IC50
Text: […]. This represents 57 folds total increase relative to the control in apoptotic cells.
IC50 values (concentration of sample
4. Annexin V-FITC Apoptosis Assay
Cells were then rinsed in binding

[3] = system: MCF-7 breast cancer cells; assay: Cell cycle analysis by flow cytometry
[4] = stopped flow technique, incubation time of 6 h, mean from 3 different assays, read-out: KI CA I

Chain of hCA XII (O43570 25-354): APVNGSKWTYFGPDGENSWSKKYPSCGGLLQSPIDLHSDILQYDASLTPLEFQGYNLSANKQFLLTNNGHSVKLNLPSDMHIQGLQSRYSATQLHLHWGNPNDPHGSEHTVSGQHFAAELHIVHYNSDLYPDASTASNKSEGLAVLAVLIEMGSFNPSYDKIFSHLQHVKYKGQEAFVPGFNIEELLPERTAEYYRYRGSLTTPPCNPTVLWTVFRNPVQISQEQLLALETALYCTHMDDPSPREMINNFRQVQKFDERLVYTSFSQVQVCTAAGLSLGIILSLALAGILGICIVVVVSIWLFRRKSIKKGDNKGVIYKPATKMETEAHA
Chain of hCA I (P00915 whole entry): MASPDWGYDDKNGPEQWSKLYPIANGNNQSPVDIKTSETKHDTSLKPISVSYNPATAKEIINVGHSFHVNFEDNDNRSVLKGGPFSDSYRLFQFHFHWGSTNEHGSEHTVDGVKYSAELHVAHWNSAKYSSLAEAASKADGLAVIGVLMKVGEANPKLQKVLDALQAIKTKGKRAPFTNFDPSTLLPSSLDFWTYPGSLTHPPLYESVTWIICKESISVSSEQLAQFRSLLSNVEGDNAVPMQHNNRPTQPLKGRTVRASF

Structure (SMILES) | Ki (hCA XII) [µM] | Ki (hCA IX) [nM] | Ki (hCA II) [µM] | IC50 [1] [µM] | Ki (hCA I; [4]) [µM] | melting point [°C] | diminished inhibition for hCA XII relative to the unsubstituted analogue 5a (hCA XII; ratio of KI values) [fold] | Apoptosis Total ([2]; MCF-7, AV-FITC/PI positive stained cells) [%] | Apoptosis Early ([2]; MCF-7, AV-FITC/PI, lower right quadrant) [%] | total increase in apoptotic cells relative to the control ([2]; MCF-7, AV-FITC/PI) [folds] | Necrosis ([2]; MCF-7, AV-FITC/PI, upper left quadrant) [%] | Apoptosis Late ([2]; MCF-7, AV-FITC/PI, upper right quadrant) [%] | Ki (hCA I) [µM] | decrease in G2-M phase compared to the control [3] [folds] | increase of cell population at Sub-G1 compared to the control [3] [folds]
O=C(CN1C(=O)SC(=Cc2ccccc2)C1=O)c1cc2ccccc2oc1=O [10a, 5-Benzylidene-3–(2-oxo-2–(2-oxo-2H-chromen-3-yl)ethyl)thiazolidine-2,4-dione] | 0.75 | 820 | > 100 | 3.13 ± 0.18 | > 100 | 249 to 251 | – | – | – | – | – | – | – | – | –
O=C(CN1C(=O)SC(=Cc2ccccc2Br)C1=O)c1cc2ccccc2oc1=O [10g, 5–(2-Bromobenzylidene)-3–(2-oxo-2–(2-oxo-2H-chromen-3-yl)ethyl)thiazolidine-2,4-dione] | 4.1 | 2300 | > 100 | – | > 100 | 230 to 232 | – | – | – | – | – | – | – | – | –
O=C(CN1C(=O)CSC1=O)c1cc2cc(Br)ccc2oc1=O [5b, 3–(2-(6-Bromo-2-oxo-2H-chromen-3-yl)-2-oxoethyl)thiazolidine-2,4-dione] | 0.31 | 240 | > 100 | – | > 100 | 239 to 241 | 2 | – | – | – | – | – | – | – | –
Cc1ccc(C=C2SC(=O)N(CC(=O)c3cc4cc(Br)ccc4oc3=O)C2=O)o1 [11d, 3–(2-(6-Bromo-2-oxo-2H-chromen-3-yl)-2-oxoethyl)-5-((5-methylfuran-2-yl)methylene)thiazolidine-2,4-dione] | 0.82 | 910 | > 100 | 1.65 ± 0.1 | > 100 | 236 to 238 | – | – | – | – | – | – | – | – | –
O=C(CN1C(=O)SC(=Cc2ccc([N+](=O)[O-])cc2)C1=O)c1cc2cc(Br)ccc2oc1=O [10l, 3–(2-(6-Bromo-2-oxo-2H-chromen-3-yl)-2-oxoethyl)-5–(4-nitrobenzylidene)thiazolidine-2,4-dione] | 10.4 | 18200 | > 100 | – | > 100 | 229 to 231 | – | – | – | – | – | – | – | – | –
Cc1ccc(C=C2SC(=O)N(CC(=O)c3cc4ccccc4oc3=O)C2=O)cc1 [10b, 5–(4-Methylbenzylidene)-3–(2-oxo-2–(2-oxo-2H-chromen-3-yl)ethyl)thiazolidine-2,4-dione] | 4 | 4300 | > 100 | – | > 100 | 227 to 229 | – | – | – | – | – | – | – | – | –
COc1ccc(OC)c(C=C2SC(=O)N(CC(=O)c3cc4ccccc4oc3=O)C2=O)c1 [10d, 5–(2,5-Dimethoxybenzylidene)-3–(2-oxo-2–(2-oxo-2H-chromen-3-yl)ethyl)thiazolidine-2,4-dione] | 6.2 | 8400 | > 100 | – | > 100 | 238 to 240 | – | – | – | – | – | – | – | – | –
COc1ccc(C=C2SC(=O)N(CC(=O)c3cc4ccccc4oc3=O)C2=O)cc1 [10c, 5–(4-Methoxybenzylidene)-3–(2-oxo-2–(2-oxo-2H-chromen-3-yl)ethyl)thiazolidine-2,4-dione] | 4.5 | 5800 | > 100 | – | > 100 | 257 to 259 | – | – | – | – | – | – | – | – | –
O=C(CN1C(=O)SC(=Cc2ccc([N+](=O)[O-])cc2)C1=O)c1cc2ccccc2oc1=O [10e, 5–(4-Nitrobenzylidene)-3–(2-oxo-2–(2-oxo-2H-chromen-3-yl)ethyl)thiazolidine-2,4-dione] | 8 | 12300 | > 100 | – | > 100 | 263 to 265 | – | – | – | – | – | – | – | – | –
O=C(CN1C(=O)SC(=Cc2ccccc2Cl)C1=O)c1cc2cc(Br)ccc2oc1=O [10m, 3–(2-(6-Bromo-2-oxo-2H-chromen-3-yl)-2-oxoethyl)-5–(2-chlorobenzylidene)thiazolidine-2,4-dione] | 3.2 | 2900 | > 100 | – | > 100 | 192 to 194 | – | – | – | – | – | – | – | – | –
O=C(CN1C(=O)SC(=Cc2ccccc2)C1=O)c1cc2cc(Br)ccc2oc1=O [10h, 5-Benzylidene-3–(2-(6-bromo-2-oxo-2H-chromen-3-yl)-2-oxoethyl)thiazolidine-2,4-dione] | 0.87 | 930 | > 100 | 11.1 ± 0.65 | > 100 | 252 to 254 | – | – | – | – | – | – | – | – | –
O=C(CN1C(=O)SC(=Cc2ccccc2Br)C1=O)c1cc2cc(Br)ccc2oc1=O [10n, 3–(2-(6-Bromo-2-oxo-2H-chromen-3-yl)-2-oxoethyl)-5–(2-bromobenzylidene)thiazolidine-2,4-dione] | 2.8 | 3400 | > 100 | – | > 100 | 208 to 210 | – | – | – | – | – | – | – | – | –
Cc1ccc(C=C2SC(=O)N(CC(=O)c3cc4ccccc4oc3=O)C2=O)o1 [11b, 5-((5-Methylfuran-2-yl)methylene)-3–(2-oxo-2–(2-oxo-2H-chromen-3-yl)ethyl)thiazolidine-2,4-dione] | 1.1 | 790 | > 100 | 4.14 ± 0.24 | > 100 | 227 to 229 | – | – | – | – | – | – | – | – | –
COc1ccc(OC)c(C=C2SC(=O)N(CC(=O)c3cc4cc(Br)ccc4oc3=O)C2=O)c1 [10k, 3–(2-(6-Bromo-2-oxo-2H-chromen-3-yl)-2-oxoethyl)-5–(2,5-dimethoxybenzylidene) thiazolidine-2,4-dione] | 6.6 | 16400 | > 100 | – | > 100 | 204 to 206 | – | – | – | – | – | – | – | – | –
O=C(CN1C(=O)CSC1=O)c1cc2ccccc2oc1=O [5a, 3–(2-Oxo-2–(2-oxo-2H-chromen-3-yl)ethyl)thiazolidine-2,4-dione] | 0.15 | 120 | > 100 | – | > 100 | – | – | – | – | – | – | – | – | – | –
O=C(CN1C(=O)SC(=Cc2cccs2)C1=O)c1cc2ccccc2oc1=O [11a, 3–(2-Oxo-2–(2-oxo-2H-chromen-3-yl)ethyl)-5-(thiophen-2-ylmethylene)thiazolidine-2,4-dione] | – | – | – | – | – | – | – | 29.93 | 4.23 | 57 | 17.39 | 25.7 | > 100 | 2.6 | 19.7
O=C(CN1C(=O)SC(=Cc2cccs2)C1=O)c1cc2cc(Br)ccc2oc1=O [11c, 3–(2-(6-Bromo-2-oxo-2H-chromen-3-yl)-2-oxoethyl)-5-(thiophen-2-ylmethylene)thiazolidine-2,4-dione] | 0.44 | 590 | > 100 | 9.56 ± 0.56 | > 100 | 255 to 257 | – | – | – | – | – | – | – | – | –
COc1ccc(C=C2SC(=O)N(CC(=O)c3cc4cc(Br)ccc4oc3=O)C2=O)cc1 [10j, 3–(2-(6-Bromo-2-oxo-2H-chromen-3-yl)-2-oxoethyl)-5–(4-methoxybenzylidene)thiazolidine-2,4-dione] | 4.9 | 8900 | > 100 | – | > 100 | 245 to 247 | – | – | – | – | – | – | – | – | –
O=C(CN1C(=O)SC(=Cc2ccccc2Cl)C1=O)c1cc2ccccc2oc1=O [10f, 5–(2-Chlorobenzylidene)-3–(2-oxo-2–(2-oxo-2H-chromen-3-yl)ethyl)thiazolidine-2,4-dione] | 3.8 | 2200 | > 100 | – | > 100 | 208 to 211 | – | – | – | – | – | – | – | – | –
Cc1ccc(C=C2SC(=O)N(CC(=O)c3cc4cc(Br)ccc4oc3=O)C2=O)cc1 [10i, 3–(2-(6-Bromo-2-oxo-2H-chromen-3-yl)-2-oxoethyl)-5–(4-methylbenzylidene)thiazolidine-2,4-dione] | 2.3 | 6200 | > 100 | – | > 100 | 224 to 225 | – | – | – | – | – | – | – | – | –
